For the assay, the system named is MG132 cells, BRM-dependent luciferase reporter, 24 h. Nature of the assay: dose-dependent BRM function restoration – cell-based, luminescence, dose response, late-stage follow-up (AID 720660).

The source made the active and inactive calls.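 How the source made its calls: active means EC50 of 10 µM or lower, the dose giving half of maximal activation; inactive means the rest.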

Consider seven compounds from PubChem BioAssay AID720660 (The Scripps Research Institute Molecular Screening Center, 2013).

For orientation: EC50 means the midpoint of the concentration-response curve.

With `Clc1ccc(Cc2nc(-c3ccccc3)cs2)cc1`, the EC50 is > 91.2 µM (inactive).

Consider `Oc1ccccc1OCc1nc2ccccc2s1`, for which the EC50 was > 91.2 µM (inactive).

With `Cc1cc(C)c2nc(NC(=O)C(C)C)sc2c1`, the EC50 is > 91.2 µM (inactive).

With `Cc1nc(NC(=O)c2cccc(Br)c2)sc1C`, the EC50 is > 91.2 µM (inactive).

As for `COc1ccc(-c2nc(C#N)c(NC3CC3)o2)cc1`, the EC50 was > 91.2 µM (inactive).

Consider `Cc1ccc(Nc2nc(-c3ccccc3)c(C)s2)cc1`, for which the EC50 is > 91.2 µM (inactive).

`O=C(NCC1(c2nc(-c3ccccc3)cs2)CCOCC1)c1cccc(-c2noc(C(F)(F)F)n2)c1`: the EC50 is > 91.2 µM (inactive).
